Results taken from patent publication US20140000883A1, “PETROLEUM RECOVERY PROCESS AND SYSTEM” (Shell Oil Company, priority 2012, published 2014).
Values joined by “and” are separate entries in the source; they are usually repeats but may differ in a detail not shown here. Equal values may be shown once. Read-outs that look alike come from different tables or passages of the source.

Columns and labels:
[1] = Extraction of mined oil sands with solvents (bitumen recovery);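 for Recovered Bitumen: Bitumen mass includes 3 to 7 wt% residual solvent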
Method: The quality of dimethyl sulfide as an oil recovery agent based on the miscibility of dimethyl sulfide with a crude oil relative to other compounds was evaluated. […] Each oil sands sample was weighed and placed in a cellulose extraction thimble that was placed on a porous polyethylene support disk in a jacketed glass cylinder with a drip rate control valve. Each oil sands sample was then extracted with a selected solvent at a selected temperature (10° C. or 30° C.) in a cyclic contact and drain experiment, where the contact time ranged from 15 to 60 minutes. Fresh contacting solvent was applied and the cyclic extraction repeated until the fluid drained from the apparatus became pale brown in color.
The extracted fluids were stripped of solvent using a rotary evaporator and thereafter vacuum dried to remove residual solvent. […] The residual solids and extraction thimble were air dried, weighed, and then vacuum dried. […] Collectively, the weight of the solid or sample and thimble recovered after extraction plus the quantity of bitumen recovered after extraction divided by the weight of the initial oil sands sample plus the thimble provide the mass closure for the extractions.

[2] = SARA analysis of extracted bitumen samples; settings: bitumen extracted at 30° C.
Method: The bitumen samples extracted at 30° C. from each oil sands sample were evaluated by SARA analysis to determine the saturates, aromatics, resins, and asphaltenes composition of the bitumen samples extracted by each solvent.

[3] = extraction at 10 C., not corrected for residual solvent
[4] = extraction at 30 C., not corrected for residual solvent

In the case of `S=C=S` [Carbon Disulfide, carbon disulfide], the “Weight Change” value ([1]; extraction at 10 C.) is reported as 16.8 g, the “Recovered Bitumen” value [1, 3] is reported as 16.62 g and the “Weight Change” value ([1]; extraction at 30 C.) is reported as 16.4 g. For the same compound, the “Recovered Bitumen” value [1, 4] was 16.43 g.

For `ClC(Cl)Cl` [Chloroform, chloroform], the “Recovered Bitumen” value [1] was 17.85 g and 18.62 g and the “Weight Change” value [1] was 18.7 g and 19.4 g.

In the case of `ClCCl` [Dichloromethane, dichloromethane], the “Weight Change” value ([1]; extraction at 10 C.) is reported as 18.9 g, the “Recovered Bitumen” value [1, 3] is reported as 17.66 g and the “Weight Change” value ([1]; extraction at 30 C.) is reported as 17.7 g. For the same compound, the “Recovered Bitumen” value [1, 4] was 16.30 g.

With `CCOC(C)=O` [Ethyl Acetate, ethyl acetate] the “extraction of / miscibility with asphaltenes” value [2] was “much less effective”, the “Weight Change” value ([1]; extraction at 10 C.) was 11.2 g and the “Recovered Bitumen” value [1, 3] was 10.32 g. The “Weight Change” value ([1]; extraction at 30 C.) was 17.7 g and the “Recovered Bitumen” value [1, 4] was 11.46 g.

For `C1CCOC1` [Tetrahydrofuran, tetrahydrofuran], the “Weight Change” value ([1]; extraction at 10 C.) was 17.7 g, the “Recovered Bitumen” value [1, 3] was 16.72 g and the “Weight Change” value ([1]; extraction at 30 C.) was 18.0 g. The “Recovered Bitumen” value [1, 4] was 17.67 g.

For `Cc1ccccc1C` [o-Xylene, o-xylene], the “Weight Change” value ([1]; extraction at 10 C.) was 17.3 g, the “Recovered Bitumen” value [1, 3] was 17.36 g and the “Weight Change” value ([1]; extraction at 30 C.) was 19.5 g. For the same compound, the “Recovered Bitumen” value [1, 4] was 17.37 g.
